Test results from a melting point compilation (Tetko et al.; mined from patent text by program, amines drawn as free bases though some values may be those of a salt).

| SMILES | melting point [°C] |
| --- | --- |
| COc1ccc2c(=O)cc(-c3ccc(O)c(O)c3)oc2c1 | > 240 |
| COC[C@H]1CN(c2ccc([C@H]3CC[C@H](OCSC)CC3)cc2)C(=O)O1 | 54 to 56 |
| Cc1ccc(-c2cccc(NC(=O)Nc3cccc4c3CC(O)CC4)c2)cc1 (stereo not drawn) | 217 to 219 |
| COC(=O)c1cc(Cl)ccc1OCc1ccccc1 | 54.5 to 55 |
| C[C@H](NC(=O)OC(C)(C)C)C(=O)NCc1cccc(Nc2n[nH]c3ncnc(Nc4cccc(Cl)c4)c23)c1 | 150 to 153 |
| Cc1ccccc1-c1ccc(Cl)cc1C#N | 62 to 65 |
| CC(=NOCCOc1ccc(CC2SC(=O)NC2=O)cc1)c1ccc2ccccc2n1 (stereo not drawn) | 162 to 163 |
| OCCCC#Cc1cnc(-c2ccccc2)c(-c2ccccc2)n1 | 88 to 90 |
| OCc1cc(NCCCCCCBr)ccc1O | 132 to 134 |
| O=[N+]([O-])c1ccc(CNc2ncnc3c2ncn3C2OC(CO)C(O)C2O)cc1 (stereo not drawn) | 168 to 169 |
| Cc1cc(C)n(Cc2ccc(OCc3nc(-c4ccccc4)oc3C)cc2)n1 | 86 to 87 |
| O=Cc1cc(Cl)ccc1Oc1ccccc1[N+](=O)[O-] | 103 to 105 |
| O=C(Cn1cncn1)c1cccc2ccccc12 | 130 |
| CSc1ccc(Oc2ccc([N+](=O)[O-])cc2)c(C)c1 | 81.6 to 84.4 |
| CC(C)(C)OC(=O)N1CCO[C@@H]2Cc3c(O)cccc3C[C@H]21 | 203 to 205 |
| Brc1ccc(CCCCn2ccnc2)cc1 | 40 |
| CCOC(=O)c1cc2cc(OCCCOC)cc(NS(=O)(=O)c3ccccn3)c2[nH]1 | 126 to 127 |
| C=CCn1cnc2c1c(=O)n(CCCCC(C)O)c(=O)n2C (stereo not drawn) | 71 |
| CC(=Cc1ccc(N(C)C)cc1C)[N+](=O)[O-] | 75 to 76 |
| Cc1cc([N+](=O)[O-])cc(C)c1Oc1ccc(O)c(Cc2ccc(F)cc2)c1 | 127 to 132 |
| CCCCn1c(C)cc(=O)n(C)c1=O | 181 to 182 |
| CC1(C)C(=CC=C2C(=O)c3ccccc3C2=C(C#N)C#N)N2CCCc3cccc1c32 | 291 |
| Cc1ccc(-n2cc(-c3cccn4nc(Nc5ccc(C6CCN(C(=O)OC(C)(C)C)CC6)cc5)nc34)cn2)cc1 | 124 to 125 |
| CCCCCCCNC(=O)CCCCCCCSc1nc(-c2ccccc2)c(-c2ccccc2)[nH]1 | 119 to 120 |
| NCCCCNC(=O)COc1ccc2ccccc2c1 | 58 |
| COc1cc(C=C(C#N)C(=O)Nc2cccc(Cl)c2)cc(Br)c1O | 217 to 219 |

| SMILES | melting point [°C] |
| --- | --- |
| Cc1nn(C(=O)NC(C)(C)CCc2ccccc2)c(=O)n1N | 87 |
| CN=C(NC#N)S(C)=O (stereo not drawn) | 116 |
| Cc1ccc(S(=O)(=O)Oc2ccc(S(=O)(=O)c3c(C)cn4ccccc34)cc2)cc1 | 169 |
| Cn1c(N2CCOCC2)nc(C(=O)NCc2ccc(F)c(Cl)c2)c(O)c1=O | 170 to 171 |
| Cc1ccccc1C(=O)Nc1ccc(C(=O)N2CCc3cn(C)nc3-c3ccccc32)cc1 | 246 to 248 |
| O=S(=O)(CC(F)(F)F)Nc1ccc(Oc2ccc(F)cc2F)cc1 | 105 to 108 |
| O=C(CCCN1CCC(c2ccccc2Cc2ccccc2)C1)c1ccc(F)cc1 (stereo not drawn) | 126 to 128 |
| CCOC(=O)c1c(Cl)nc2ccc(Br)cc2c1Cl | 120 to 121 |
| CCOC(=O)c1c[nH]c2nc(NCc3ccc(Br)cc3)nn2c1=O | 286 to 287 |
| NS(=O)(=O)c1ccc(-n2nc(C(F)F)cc2-c2nc3cccc(Cl)c3s2)cc1 | 238 to 239 |
| CCOC(=O)CC(=O)c1cccc(-n2ccnn2)c1 | 72 to 74 |
| CC(C)(C)OC(=O)NCCN1CC2CN(Cc3ccccc3)CC(C1)O2 | 58 to 60 |
| CCC(Oc1cccc([N+](=O)[O-])c1Cl)C1=NCCN1 (stereo not drawn) | 100 to 103 |
| O=c1nc(-c2c(F)cccc2F)oc(=O)n1-c1cc(Cl)c(Oc2ncc(OC(F)F)cc2Cl)c(Cl)c1 | 154 to 156 |
| Nc1ncnc2c1ncn2Cc1ccccc1 | 231 to 232 |
| OCC1OC(OCc2ccccc2)C(O)C1O (stereo not drawn) | 95 |
| CS(=O)(=O)c1ccc(-c2cc(C=O)sc2-c2ccc(F)cc2)cc1 | 165 to 166 |
| C/C(Cl)=C\C(=O)Nc1ccc(C)cc1 | 108 to 109 |
| OCCCOc1ccc(Cl)cc1Cl | 53 to 55 |
| COc1cc(Nc2c(C#N)cnc3cc(/C=C/CCN4CCOCC4)ccc23)cc(OC)c1OC | 128 to 130 |
| CSc1nccn1-c1cccc(C(=O)CC(=O)Nc2cc(-c3ccccc3F)c(OC(C)(C)C)cc2NC(=O)OC(C)(C)C)c1 | 59 to 62 |
| COC(=O)c1ccc(O)cn1 | 188 to 190 |
| COc1nc2ccccc2c(=O)n1O | 220 |
| CC(=O)Nc1cc(N)c(F)cc1Cl | 176 to 178 |
| COC(=O)COc1c(OC)cc(C=O)cc1OC | 99 to 100 |
| Cc1nc(Cl)c2c(c1O)COC2(C)c1ccccc1 (stereo not drawn) | 246 |

| SMILES | melting point [°C] |
| --- | --- |
| CN1CCC(N(CCCC2CCCO2)S(=O)(=O)c2ccc(Nc3nccc(Nc4ccc(F)cc4)n3)cc2)CC1 (stereo not drawn) | 189 |
| O=C1CCn2c1c(Sc1ccccc1)c1ccccc12 | 179 to 181 |
| O=c1sc2ccccc2n1Cc1nc2ccccc2n1-c1ccccc1 | 196 to 198 |
| Cc1nc2c(cc1C(=O)NC(=N)N)CCCCC2 | 230 to 232 |
| CC(Oc1ccc2c(c1)c(-c1cc3cccnc3[nH]1)cn2C)C(=O)O (stereo not drawn) | 177 to 178 |
| CC(C)NC(=N)NC(=N)NOCCCOc1ccc(OC(F)(F)F)cc1 | 154 to 155 |
| Nc1ccc(C=Cc2cc(=O)cc(-c3ccccc3)o2)cc1 | 192 to 194 |
| COc1nc(OC)nc(SC(C(=O)O)C2CCCC2)n1 (stereo not drawn) | 106 to 110 |
| OC(Cc1ccc(Cl)cc1Cl)(Cn1ccnc1)c1ccc(C2CCCCC2)cc1 (stereo not drawn) | 142 |
| COc1ccc(-c2c(Cl)c(CN3C(=O)CCC3=O)nc3sc4c(F)c(O)ccc4c23)cc1 | 294 to 295 |
| CCCn1c(=O)c(C(=O)OCC)c(O)c2cnc(SC)nc21 | 130 to 133 |
| CC(=O)c1cc(O)c(C)cc1O | 144 to 146 |
| CCOC(=O)Nc1cc(F)cc(CCCCC(=O)OC)c1 | 61 to 62 |
| O=S(=O)(c1ccc(Cl)cc1)C(CCl)Sc1ccc(Br)cc1 (stereo not drawn) | 76 to 78 |
| CC(C)c1cc(C=C2Sc3ccccc3N(Cc3nnn[nH]3)C2=O)cc(C(C)C)c1O | 189 to 190 |
| Cc1cc(-c2ccc(-c3ccccc3)c(-c3ccc4c(c3)C(C)(C)CCC4(C)C)c2)ccc1C(=O)O | 130 to 132 |
| CCCCCCCCCc1ccccc1O | 80 |
| CON=Cc1cc(N=c2sc(=S)n3n2CCCC3)c(F)cc1Cl | 128 to 133 |
| Cc1cc(SCc2oc(-c3ccc(C(F)(F)F)cc3)nc2C)ccc1OCC(=O)O | 156 to 157 |
| Nc1cc(=O)n(Cc2ccccc2)c(=O)n1-c1cccc([N+](=O)[O-])c1 | 256 to 260 |
| COc1ccc(CNc2nc(C#N)ncc2C(=O)c2cc(OC)c(OC)c(OC)c2)cc1Cl | 140 to 143 |
| O=S(=O)(c1ccc(/C=C/c2nc(COc3ccc(CCCCn4ccnn4)cc3)co2)cc1)C(F)(F)F | 133 to 135 |
| O=C(O)C(=O)Nc1cc(-c2ccc(-c3cccc4c3oc3ccccc34)cc2)cn(Cc2ccccc2)c1=O | 220 to 223 |
| NCCCNc1cccc2c1C(=O)c1ccccc1C2=O | 106 to 108 |
| COc1ccc(N2CCN(c3c(C)c(C)c4c(c3C)CC(C)O4)CC2)cc1C (stereo not drawn) | 141 to 142 |
| CCOC(=O)c1c(O)c2ccccc2n(C)c1=O | 67 |

| SMILES | melting point [°C] |
| --- | --- |
| O=C1NN(c2ccc(Cl)cc2)C(=O)C1=CNc1ccccc1 | 288 to 290 |
| CC(C)(C)c1ccc2c(c1)C(=O)CC2 | 94 to 96 |
| CCOC(=O)Cc1ccc(NC(=O)C(COS(C)(=O)=O)NS(=O)(=O)c2ccc(Br)cc2)cc1 (racemic) | 155 to 156 |
| CC(=O)Nc1ccc(C=CC(=O)N2CCc3c([nH]c4ccccc34)C2c2ccc3c(c2)OCO3)cc1 (stereo not drawn) | 185 |
| COc1ccc2c(c1)c(OC(C)C)c(C(=O)O)n2C | 110 to 112 |
| Cc1cnc(NC(=O)C2=C(O)c3ccc(F)cc3S(=O)(=O)N2C)s1 | 233 |
| CCN(CC)Cc1cc(O)ccc1O | 114 |
| C=Cc1cc(C)c(C(=O)N=C(N)N)cc1S(C)(=O)=O | 223 to 226 |
| CS(=O)(=O)OCC[C@H](CCCCC(=O)O)OS(C)(=O)=O | 54 to 55 |
| CC(c1ccc(Cl)cc1)N1C(=O)CC(Br)C1=O (stereo not drawn) | 96 |
| Nc1ccc(C2CCC(=O)CC2)cc1 | 127 to 128 |
| O=Cc1cc2c(cc1O)CCCO2 | 97 to 100 |
| N#CC1(Nc2ccc(Cl)cc2)CCN(C(=O)c2cc(C(F)(F)F)cc(C(F)(F)F)c2)CC1 | 176 to 180 |
| CNS(=O)(=O)c1ccc(C(=O)C=Cc2cc(-c3cc4ccccc4n3C)c(OC)cc2OC)cc1 | 129 to 131 |
| CC(CCC=O)C1CCC2C3CC=C4CC(O)CC(O)C4(C)C3CCC12C (stereo not drawn) | 120 to 122 |
| Nc1nc(N)c2c(n1)CCC(c1ccccc1)C2 (stereo not drawn) | 223 to 226 |
| Cc1c2c(c(-c3ccc4c(c3)OCO4)c3c4c(ccc13)OCO4)C(=O)NC2=O | 310 to 313 |
| CC(C)(C)N(NC(=O)c1ccccn1)C(=O)c1ccccc1Br | 179 to 180 |
| CCCC(CCC)n1ccc(=O)c2c(Cl)cc(C)nc21 | 82 to 85 |
| CSC(=S)NCc1c(Cl)cccc1Cl | 47 |
| CCC(C)c1ccc(NS(=O)(=O)c2ccc(N3CCNC3=O)cc2)cc1 (stereo not drawn) | 157 to 159 |
| O=c1cnc(C(F)(F)F)cn1-c1c(Cl)cc(C(F)(F)F)cc1Cl | 109 to 111 |
| CCC(Oc1c(C)cccc1C)C(=O)OC1CC(O)C=C2C=CC(C)C(CCC3CC(O)CC(=O)O3)C21 (mixture of isomers) | 125 to 127 |
| CCc1nc(N)nc(N)c1N1CCN(c2ccc(C(=O)O)cc2)CC1 | > 300 |
| COC(=O)C(C)Oc1noc2cc(Cl)c([N+](=O)[O-])cc12 (stereo not drawn) | 98 to 101 |
